{"source": "patent US20240091145A1", "about": "“DRY MUCO-ADHESIVE COMPOSITIONS AND USE THEREOF” (TECHNION RESEARCH & DEVELOPMENT FOUNDATION LIMITED, priority 2021, published 2024)", "key": {"SCC7 cell line": {"tested_on": "SCC7 cell line", "assay": "Cell viability assay (MTT)", "format": "cell-based, murine", "description": "Murine squamous cell carcinoma cell line, SCC7 purchased from Prof. Reinhard Zeidler, at the German Research Center for Environmental Health in Munich, were cultured in DMEM containing 10% v/v FBS and (2 mM) L-glutamine, kept at a temperature of 37° C. and in humidified atmosphere containing 5% v/v CO2 and 95% v/v air. For maintain cell growth, cells were split every 2-3 days using […] trypsin solution for detaching.\nTablets (1×3 mm) containing alginate (0.8, 1.6 mg) and liposomes (0.8 mg) in the form of layered or homogenous, either empty or DOX loaded liposomes were prepared as described above. The final concentration of DOX in each tablet was (1.68 mg mL^−1). To examine the toxicity of the tablets containing the drug on SCC7 cell line, at first cells were seeded at a uniform density of 15,000 cells per well on 96 well plates in […] DMEM medium. On the day of the experiment, medium was replaced with fresh medium containing the tablets, free DOX and in some wells empty fresh medium to serve as control. Cells were incubated for 4, 8, 12, 24, 48 and 72 hr in humidified atmosphere at 37° C. Cells viability was measured using the MTT assay. The medium was removed and (100 μl) of MTT (1 mg mL^−1) in PBS^−1 were added to each well and incubated at 37° C. for 4 hr. […] The absorbance was measured at 570 nm and 690 nm for the background absorbance. […]"}, "OSCC cell line (HSC-2)": {"tested_on": "OSCC cell line (HSC-2)", "conditions": "in vitro; cited from earlier work"}}}
{"smiles": "COc1cccc2c1C(=O)c1c(O)c3c(c(O)c1C2=O)C[C@@](O)(C(=O)CO)C[C@@H]3O[C@H]1C[C@H](N)[C@H](O)[C@H](C)O1", "note": "[free DOX, Doxorubicin]", "values": [{"measurement": "cell viability", "setting": "SCC7 cell line; SCC7, long times", "value": "3-10%"}, {"measurement": "cell viability", "setting": "SCC7 cell line; SCC7, short times", "value": "28-40%"}, {"measurement": "apoptosis induction", "setting": "OSCC cell line (HSC-2)", "value": "induce apoptosis through the activation of caspase-3, -8 and -9"}]}
